From PubChem BioAssay (NCI)
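Where inhibition never reached the appropriate level, the endpoint shown equals the highest concentration tested. Otherwise, values were interpolated linearly from a five-concentration, 48-hour dose response in 96-well plates. At the GI50, growth is halved. The concentration for full growth arrest is given as TGI.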

What was measured:
Assay in all cases: DTP human tumour cell line panel, 48 h
[1] = system: SR leukemia
[2] = system: DU-145 prostate
[3] = system: TK-10 renal
[4] = system: SK-MEL-28 melanoma
[5] = system: SF-539 CNS
[6] = system: 786-0 renal
[7] = system: HT29 colon
[8] = system: OVCAR-8 ovarian
[9] = system: CAKI-1 renal
[10] = system: BT-549 breast
[11] = system: MDA-MB-435
[12] = system: RXF 393 renal
[13] = system: NCI-H23 lung
[14] = system: MALME-3M melanoma
[15] = system: EKVX NSCLC
[16] = system: HCC-2998 colon
[17] = system: SK-MEL-5 melanoma
[18] = system: RPMI-8226 leukemia
[19] = system: ACHN renal
[20] = system: HL-60(TB) leukemia
[21] = system: SN12C renal
[22] = system: OVCAR-5 ovarian
[23] = system: NCI-H522 lung
[24] = system: U251 CNS
[25] = system: HOP-62 NSCLC
[26] = system: MOLT-4 leukemia
[27] = system: HS 578T breast
[28] = system: OVCAR-4 ovarian
[29] = system: OVCAR-3 ovarian
[30] = system: PC-3 prostate
[31] = system: SNB-19 CNS
[32] = system: COLO 205 colon
[33] = system: KM12 colon
[34] = system: IGROV1 ovarian
[35] = system: NCI-H226 lung
[36] = system: MDA-N
[37] = system: UACC-62 melanoma
[38] = system: SNB-75 CNS
[39] = system: SF-268 CNS
[40] = system: A549 NSCLC
[41] = system: NCI-H460 lung
[42] = system: SF-295 CNS
[43] = system: UACC-257 melanoma
[44] = system: HCT-15 colon
[45] = system: HOP-92 NSCLC
[46] = system: SK-MEL-2 melanoma
[47] = system: T-47D breast
[48] = system: SW-620 colon
[49] = system: HCT-116 colon
[50] = system: MDA-MB-231 breast
[51] = system: K-562 leukemia
[52] = system: LOX IMVI melanoma
[53] = system: A498 renal
[54] = system: UO-31 renal
[55] = system: NCI/ADR-RES ovarian
[56] = system: SK-OV-3 ovarian
[57] = system: MCF7 breast
[58] = system: M14 melanoma

**Q.** What does the source list for `CC1OC(OC2CC(O)C3(CO)C4C(O)CC5(C)C(C6=CC(=O)OC6)CCC5(O)C4CCC3(O)C2)C(O)C(O)C1O` (configuration not stated)?
**A.** GI50 [1]: 22.1 nM; TGI [1]: 54.6 nM; GI50 [2]: < 12 nM; TGI [2]: < 15.2 nM; GI50 [3]: < 10.5 nM; TGI [3]: 32.3 nM; GI50 [4]: 64.6 nM; TGI [4]: 251 nM; GI50 [5]: < 13.2 nM; TGI [5]: < 18.2 nM; GI50 [6]: < 12.9 nM; TGI [6]: < 17.9 nM; GI50 [7]: < 14.7 nM; TGI [7]: 102 nM; GI50 [8]: < 19.9 nM; TGI [8]: 46 nM; GI50 [9]: < 14.6 nM; TGI [9]: 24 nM; GI50 [10]: < 12.9 nM; TGI [10]: 20.8 nM; GI50 [11]: 22.2 nM; TGI [11]: 78.5 nM; GI50 [12]: < 12.9 nM; TGI [12]: < 20.2 nM; GI50 [13]: < 10.8 nM; TGI [13]: < 14.2 nM; GI50 [14]: < 13.1 nM; TGI [14]: 17.2 nM; GI50 [15]: < 10.7 nM; TGI [15]: < 14.2 nM; GI50 [16]: 60.6 nM; TGI [16]: 204 nM; GI50 [17]: < 15.1 nM; TGI [17]: 26.7 nM; GI50 [18]: 16.7 nM; TGI [18]: 206 nM; GI50 [19]: 10 nM; TGI [19]: 19.1 nM; TGI [20]: 235 nM; TGI [21]: 22.8 nM; GI50 [22]: 14.7 nM; TGI [22]: 31.1 nM; GI50 [23]: < 14.7 nM; TGI [23]: < 31.2 nM; GI50 [24]: 21.9 nM; TGI [24]: 68.3 nM; GI50 [25]: < 11.2 nM; TGI [25]: < 14.6 nM; GI50 [26]: < 12.3 nM; TGI [26]: 1780 nM; GI50 [27]: < 15.5 nM; TGI [27]: 304 nM; GI50 [28]: < 12.4 nM; TGI [28]: 17.6 nM; GI50 [29]: < 13 nM; TGI [29]: < 17.1 nM; GI50 [30]: < 14.4 nM; TGI [30]: 43.7 nM; GI50 [31]: 29.6 nM; TGI [31]: 177 nM; GI50 [32]: 23.9 nM; TGI [32]: 116 nM; GI50 [33]: 24.9 nM; TGI [33]: 217 nM; GI50 [34]: < 16.1 nM; TGI [34]: 384 nM; GI50 [35]: 16.7 nM; TGI [35]: 64.6 nM; GI50 [36]: < 19.5 nM; TGI [36]: 122 nM; GI50 [37]: 38.1 nM; TGI [37]: 173 nM; TGI [38]: 99 nM; GI50 [39]: < 14.2 nM; TGI [39]: 23.6 nM; GI50 [40]: < 10.9 nM; TGI [40]: < 13.8 nM; GI50 [41]: < 11.1 nM; TGI [41]: 17.4 nM; GI50 [42]: < 13.8 nM; TGI [42]: 29.1 nM; GI50 [43]: 23.7 nM; TGI [43]: 105 nM; GI50 [44]: < 13.3 nM; TGI [44]: 24 nM; GI50 [45]: 21.6 nM; TGI [45]: 79.1 nM; GI50 [46]: 18.7 nM; TGI [46]: 75.4 nM; GI50 [47]: < 12.1 nM; TGI [47]: 34.2 nM; GI50 [48]: 20 nM; TGI [48]: 702 nM; GI50 [49]: < 13.9 nM; TGI [49]: 20.9 nM; GI50 [50]: 129 nM; TGI [50]: 641 nM; GI50 [51]: < 19.8 nM; GI50 [52]: < 19.6 nM; TGI [52]: 45.7 nM; GI50 [53]: < 18.3 nM; TGI [53]: 102 nM; GI50 [54]: < 12.4 nM; TGI [54]: 19.8 nM; GI50 [55]: < 12.2 nM; TGI [55]: < 15.2 nM; GI50 [56]: 15.7 nM; TGI [56]: 55.2 nM; GI50 [57]: < 16.3 nM; TGI [57]: 290 nM; GI50 [58]: 21.2 nM; TGI [58]: 78.4 nM
